{"source": "patent US20210403864A1", "about": "“METHODS AND COMPOSITIONS FOR TREATING ACTIVATED G-ALPHA Q MUTANT CANCERS OR MELANOCYTIC MALIGNANCIES” (Memorial Sloan Kettering Cancer Center, priority 2018, published 2021)", "key": {"[1]": {"tested_on": "human UVM cell lines that harbored the GNAQ^Q209L/P mutation", "assay": "IP1 accumulation assay in UVM cells", "type": "cell-based", "conditions": "YM treatment at 24 hours", "protocol": "Cells were treated with increasing concentrations of YM for 3 hours (top) and 24 hours (bottom). Error bars, s.e.m from three biological replicates, each with three technical replicates.\nIP1 Accumulation Assay. IP1 concentrations in GNAQ-transfected HEK293T cells, GNAQ-expressing melan-a cells and uveal melanoma cells was measured using a competitive homogenous time resolved fluorescence (HTRF) assay (CisBio, Bedford, Mass.). Briefly, 9,000 transiently transfected-HEK293T cells, 5,000 melan-a cells and 5,000 uveal melanoma cells were seeded in low-volume 384-well plates in 7 μL media for 24 hours prior YM-254890 treatment. […] Following incubation, cells were lysed by adding 3 μL/well of d2-labeled IP1 analogue as the fluorescence acceptor and the Terbium cryptate-labeled anti-IP1 mAb as the fluorescence donor, diluted in the kit-supplied lysis buffer. The plates were incubated overnight at RT and time-resolved fluorescence signals were read using the BioTek Synergy NEO plate reader (BioTek Instruments, Winooski, Vt.) at 620 nm and 655 nm. Results were calculated as a 665 nm/620 nm signal ratio, and IP1 concentrations were interpolated from a standard curve prepared using the supplied IP1 calibrator. […] Dose-response curves and bar graphs were analyzed using GraphPad Prism 7.0 software. […]"}, "[2]": {"tested_on": "PKC and MAPK signaling (pRASGRP3, p-CRAF, p-MEK1/2, p-ERK1/2), cyclin D1 protein", "assay": "Western blot of downstream UVM signaling in UVM cells and A375 cells", "type": "cell-based, human", "conditions": "for inhibition of PKC and MAPK signaling and cyclin D1 protein / inhibition of MAPK targets (p-CRAF, p-MEK1/2, p-ERK1/2) / change in pRASGRP3: 500 nM YM; for inhibition of MAPK targets (p-CRAF, p-MEK1/2, p-ERK1/2): 2 hours", "protocol": "(§1) Immunoblotting. Lysates were harvested using SDS lysis buffer (50 mM Tris-HCL, pH 6.8, 1 mM EDTA, 150 mM NaCl, 1% SDS, […]) supplemented with fresh proteinase and phosphatase inhibitors (PhosSTOP, Roche, Basel, Switzerland; Complete EDTA-Free, Roche, Basel, Switzerland) and 1% PMSF (Sigma-Aldrich, St. Louis, Mo.). Lysates were incubated on ice for 30 minutes, sonicated for 15 minutes, and then centrifuged at max speed for 10 minutes at 4° C. Protein levels were quantified using BCA protein assay (Thermo Scientific, Waltham, Mass.). NuPAGE LDS Sample Buffer (4×) was added to a final concentration of 1×. Samples were run on NuPAGE Novex 4-12% Bis-Tris protein gels (Life Technologies, Carlsbad, Calif.), transferred electrophoretically to 0.45 μm PVDF membranes (Immobilon, EMD Millipore, Burlington, Mass.), and then blocked with StartingBlock blocking buffer (Thermo Scientific, Waltham, Mass.) for 1 hour at room temperature. Primary antibodies were incubated at 4° C. overnight in StartingBlock buffer at 1:1,000 dilution, unless noted otherwise. Primary Antibodies used in the experiments described herein are provided below:\nGiven the unexpected sensitivity of GNAQ^Q209L mutation to YM in the melan-a system, the effect of YM on three human UVM cell lines that harbored the GNAQ^Q209L/P mutation was evaluated, using the BRAF^V600E mutant A375 cutaneous melanoma cell line as a negative control."}, "Gαq^Q209L": {"biological_target": "Gαq^Q209L (Homo sapiens, UniProt P50148, Q209L)", "sequence (P50148 whole entry Q209L)": "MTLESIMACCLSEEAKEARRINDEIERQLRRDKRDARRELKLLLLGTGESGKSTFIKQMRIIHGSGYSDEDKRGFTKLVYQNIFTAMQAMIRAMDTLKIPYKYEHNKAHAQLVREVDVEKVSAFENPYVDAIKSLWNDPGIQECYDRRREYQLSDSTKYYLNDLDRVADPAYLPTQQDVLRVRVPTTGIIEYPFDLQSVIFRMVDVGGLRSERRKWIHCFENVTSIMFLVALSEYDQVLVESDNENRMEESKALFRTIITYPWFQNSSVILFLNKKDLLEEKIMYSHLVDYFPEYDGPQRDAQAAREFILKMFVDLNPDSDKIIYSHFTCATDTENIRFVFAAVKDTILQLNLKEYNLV", "conditions": "overexpression systems, literature, cited from earlier work"}, "[3]": {"tested_on": "RASGRP3, CRAF, MEK, ERK phosphorylation and cyclin D1 expression", "assay": "Western blot of Gαq downstream signaling in melan-a cells", "type": "cell-based, mouse", "protocol": "The last sample for each cell line was also treated with TPA for 24 hours showing rescue of the pathway.\nSamples were treated with 500 nM YM for 0, 2, 4, 8, and 24 hours with the last lane being treatment plus TPA add back.\nas §1\nThe effect of YM on Gαq downstream signaling was assayed, including RASGRP3 phosphorylation by PKC, phosphorylation of CRAF, MEK, and ERK (downstream of RAS) and cyclin D1 expression which integrates signaling to promote cell cycle progression."}}, "note": "Where two headings read alike, the source gives them in different places."}
{"substance": "YM-254890", "values": [{"measurement": "inhibition of IP1 accumulation", "setting": "[1]", "value": "inhibited"}, {"measurement": "inhibition of PKC and MAPK signaling and cyclin D1 protein", "setting": "[2]; A375 cells (negative control)", "value": "not in A375 cells"}, {"measurement": "p-ERK1/2 level", "setting": "[2]; Mel202 cells, 24 hours", "value": "rebound"}, {"measurement": "inhibition of pRASGRP3", "setting": "[2]; Mel202 cells, earlier time points, in contrast to Mel270 and OMM1.3", "value": "greater inhibition"}, {"measurement": "inhibition of MAPK targets", "setting": "[2]; Mel202 cells, in contrast to Mel270 and OMM1.3", "value": "decreased inhibition"}, {"measurement": "inhibition of MAPK targets (p-CRAF, p-MEK1/2, p-ERK1/2)", "setting": "[2]; Mel270 cells", "value": "significant inhibition"}, {"measurement": "change in pRASGRP3", "setting": "[2]; Mel270 cells, 24 hours", "value": "small decreases"}, {"measurement": "inhibition of MAPK targets (p-CRAF, p-MEK1/2, p-ERK1/2)", "setting": "[2]; OMM1.3 cells", "value": "significant inhibition"}, {"measurement": "change in pRASGRP3", "setting": "[2]; OMM1.3 cells, 24 hours", "value": "small decreases"}, {"measurement": "inhibition of PKC and MAPK signaling and cyclin D1 protein", "setting": "[2]; UVM cells", "value": "inhibited"}, {"measurement": "inhibition of aberrant Gαq signaling downstream of Gαq^Q209L", "setting": "Gαq^Q209L", "value": "ineffective"}, {"measurement": "inhibition of aberrant Gαq signaling downstream of Gαq^Q209L", "setting": "Gαq^Q209L; listed as YM", "value": "unable to inhibit"}, {"measurement": "downstream signaling targets with TPA supplementation", "setting": "[3]; 24 hours after YM treatment, plus TPA", "value": "completely rescued"}, {"measurement": "inhibition of MAPK signaling", "setting": "[3]; BRAF^V600E-expressing melan-a cells, 500 nM YM", "value": "ineffective"}, {"measurement": "inhibition of downstream signaling targets (p-RASGRP3, p-CRAF, p-MEK, p-ERK, cyclin D1)", "setting": "[3]; CYSLTR2^L129Q, GNAQ^G48V, GNAQ^R183Q and GNAQ^Q209L-expressing melan-a cells, 500 nM YM, 0-24 hours", "value": "inhibited"}, {"measurement": "kinetics of inhibition of downstream signaling compared to CYSLTR2^L129Q and GNAQ^G48V-expressing cells", "setting": "[3]; GNAQ^Q209L-expressing melan-a cells, 500 nM YM", "value": "slower kinetics"}, {"measurement": "kinetics of inhibition of downstream signaling compared to CYSLTR2^L129Q and GNAQ^G48V-expressing cells", "setting": "[3]; GNAQ^R183Q-expressing melan-a cells, 500 nM YM", "value": "slower kinetics"}, {"measurement": "inhibition of MAPK signaling", "setting": "[3]; KRAS^G12V-expressing melan-a cells, 500 nM YM", "value": "ineffective"}]}
